# According to paper PMC6470603, “Design and Synthesis of Matrine Derivatives as Novel Anti-Pulmonary Fibrotic Agents via Repression of the TGFβ/Smad Pathway” (Molecules, 2019):
# What was measured:
# [1] = tested on: fibronectin in MRC-5 cells; assay: Immunofluorescence assay, fibronectin expression; format: cell-based, human; conditions: 10 μM, 48 h, 10 ng/mL TGF-β1, mean fluorescence intensity
# Method: Next, we evaluated the inhibitory effect of 3f against fibronectin expression. Fibronectin is another major constituent of ECM and plays a critical role in fibrogenesis by promoting the migration, proliferation, and adhesion of fibroblasts.
# (§1) MRC-5 cells were seeded on 0.2% gelatin-coated glass coverslips and treated with or without 10 ng/mL TGF-β1 in the presence of vehicle or 10 μM 3f for 48 h. The cells were washed with PBS and fixed in freshly prepared 4% paraformaldehyde (PFA) at room temperature for 10 min. The cells were then permeabilized with 0.25% Triton X-100 for 10 min before 30 min of blocking by PBS solution supplemented with 1% BSA and 22.5 mg/mL glycine (the permeabilization was omitted for S100A4 and TGFβRI staining). The cells were incubated with primary antibody overnight at 4 °C and labeled with AlexaFluor 488-conjugated or Dylight 488-conjugated secondary antibody. […] The mean fluorescence intensity (MFI) of each photo was calculated by ImageJ. […]
# [2] = tested on: TGF-β1 induced total collagen accumulation in MRC-5 cells; assay: Sircol collagen assay: inhibition of TGF-β1-induced total collagen accumulation; format: cell-based, human; conditions: for IC50: Homo sapiens, MRC5, 10 ng/mL TGF-β1, 48 h, Sircol collagen assay; for SI, selectivity index (SI = CC50/IC50): MRC-5 cells
# Method: Higher SI values indicates better safety profile.
# MRC-5 cells in 1 × 10^5 cells/mL density were seeded in TC treated 96-well plates and allowed to reach confluence for 48 h. The cells were then starved using MEM-NEAA containing 0.2% BSA for 24 h. After starvation, the medium was changed to MEM-NEAA supplemented with 0.2% BSA, 100 μM L-Proline, 100 μM Ascorbic acid, with or without 10 ng/mL TGF-β1 (Peprotech) in the presence of vehicle or different concentrations of compounds. After 48 h incubation, the MRC-5 cells were washed with phosphate buffered saline (PBS) and fixed in −20 °C precooled methanol for 10 min. The cells were than washed with PBS before incubation in 0.1% PSR staining solution (0.1% Sirus red in saturated water solution of picric acid) for 1 h. The staining solution was then removed and the cells were washed with 0.1% acetic acid for three times. 200 μL of 0.1 mol/L sodium hydroxide solution were added to each well and the plates were placed on a rocking platform for 1 h. The optical density (OD) values at 550 nm were determined with an Infinite 2000 spectrophotometer.
# [3] = tested on: TGF-β receptor type I (TGFβRI) in MRC-5 cells; assay: Immunofluorescence assay, TGFβRI expression; format: cell-based, human; conditions: 10 μM, 48 h, 10 ng/mL TGF-β1, mean fluorescence intensity
# Text: Another emerging effect of Smad which acts as the amplifier of TGF-β signaling also contribute to fibrotic diseases. The nuclear translocation of Smad3 leads to the activation of the miR-433 promotor region. miR-433 promotes the decrease of antizyme inhibitor I (Azin1) and eventually results in depletion of polyamine, which causes the upregulation of expression level of TGF-β receptor type I (TGFβRI) and TGF-β1. This series of signaling creates a positive-feedback loop which amplify the TGFβ signaling.
# as §1
# [4] = tested on: alpha-smooth muscle actin (α-SMA) in MRC-5 cells; assay: Immunofluorescence assay, α-SMA expression (fibroblast-to-myofibroblast transition); format: cell-based, human; conditions: 10 μM, 48 h, 10 ng/mL TGF-β1, mean fluorescence intensity
# Text: (§2) Myofibroblasts, a further differentiated subset of fibroblasts, are primary effector cells for collagen synthesis in fibrotic disorders. Inhibition of fibroblast differentiation is an important therapeutic target for IPF treatment. To examine whether 3f could inhibit TGF-β1-induced fibroblast-to-myofibroblast transition, we investigated the expression level of alpha-smooth muscle actin (α-SMA) and S100A4, the key markers which distinguish myofibroblasts from their precursor fibroblasts. We observed dramatic upregulation of myofibroblast markers in response to TGF-β1 stimulation (774.9% and 537.7% for α-SMA and S100A4, respectively), characterizing a strong expression of myofibroblast phenotype.
# as §1, with “staining).” for “staining). The cells were incubated with primary antibody overnight at 4 °C and labeled with AlexaFluor 488-conjugated or Dylight 488-conjugated secondary antibody.”
# Smad2/3 in MRC-5 cells = assay: Immunofluorescence assay, cellular localization of Smad2/3; format: cell-based, human; conditions: 10 μM, 48 h, 10 ng/mL TGF-β1
# Text: Small mothers against decapentaplegic homologs (Smad) are key mediators and regulators of TGFβ signaling. The binding of TGF-β1 to TGFβ receptors leads to the phosphorylation of Smad2/3 complex, which then translocate into nucleus to enhance gene transcription by cooperating with DNA transcription factors. Inhibition of the nuclear translocation of Smad2/3 could attenuate the transcription of profibrotic genes such as collagens and α-SMA. Therefore, we investigated the cellular localization of Smad2/3 by immunofluorescence assay. As depicted in Figure 6A, Smad2/3 predominately localize in cytoplasm under normal conditions, but translocate into nucleus upon TGF-β1 stimulation.
# as §1, with “staining).” for “staining). The cells were incubated with primary antibody overnight at 4 °C and labeled with AlexaFluor 488-conjugated or Dylight 488-conjugated secondary antibody.”
# [5] = tested on: Collagen type III alpha-1 chain (COL3A1) in MRC-5 cells; assay: Immunofluorescence assay, COL3A1 expression; format: cell-based, human; conditions: 10 μM, 48 h, 10 ng/mL TGF-β1, mean fluorescence intensity
# Method: (§3) Due to the significance of collagen in IPF pathogenesis, we first evaluated the inhibitory effect of key compound 3f against collagen accumulation. Immunofluorescence staining was employed to investigate collagen protein expression.
# as §1
# [6] = tested on: Collagen type I alpha-1 chain (COL1A1) in MRC-5 cells; assay: Immunofluorescence assay, COL1A1 expression; format: cell-based, human; conditions: 10 μM, 48 h, 10 ng/mL TGF-β1, mean fluorescence intensity
# Method: as §3, §1
# MRC-5 fibroblasts = assay: Scratch (wound healing) assay, TGF-β1-induced fibroblast migration; format: cell-based, human; conditions: 10 μM, 10 ng/mL TGF-β1, 24 h (TGF-β1 alone 85.0%)
# Method: Fibroblast migration is the key event in pulmonary fibrogenesis. […] Inhibition of lung fibroblasts migration is a promising potential therapeutic target for IPF. We performed wound healing assay to investigate the inhibitory effect of 3f and matrine against fibroblast migration (Figure 7).
# MRC-5 cells were seeded on 6-well plates and allowed to reach confluence for 48 h. The cell monolayer was gently scratched with a 1 mL pipette tip across the center of the well. After scratching, the cells were washed twice with medium to remove detached cells. The cells were then treated with or without 10 ng/mL TGF-β1 in the presence of vehicle or 10 μM 3f for 24 h. The gap area in wound region was quantitatively evaluated using ImageJ [30] and MRI wound healing tool plugin [31].
# S100A4 in MRC-5 cells = assay: Immunofluorescence assay, S100A4 expression (fibroblast-to-myofibroblast transition); format: cell-based, human; conditions: 10 μM, 48 h, 10 ng/mL TGF-β1, mean fluorescence intensity
# Text: as §2
# as §1, with “staining).” for “staining). The cells were incubated with primary antibody overnight at 4 °C and labeled with AlexaFluor 488-conjugated or Dylight 488-conjugated secondary antibody.”
# [7] = Cytotoxicity assay (CCK-8); conditions: human, MRC-5 cells (human fetal lung fibroblasts)
# Method: (§4) Cytotoxicity of all compounds were also determined against MRC-5 cells, so as to calculate selectivity index (SI, CC50/IC50).
# (§5) MRC-5 cells in passage between 21 to 26 were used for experiments.
# (§6) MRC-5 cells were incubated with different concentrations of compounds for 48 h, and then 10 μL of CCK-8 solution were added to each well. The cells were incubated at 37 °C for another 3 h before determining the OD values at 492 nm. DMSO at 0.1% v/v final concentration was used to solubilize the test compounds, except for compound 3b, 3c, and 3e, where 1% v/v DMSO was used to ensure complete solubilization.
# in vitro = conditions: human
# Method: as §4, §5, §6
SMILES,reduction of expression level of fibronectin comparing to TGF-β1 stimulation group [1] [%],IC50 [2] [µM],"SI, selectivity index (SI = CC50/IC50) [2]",reduction of TGF-β1-induced upregulation of TGFβRI expression level [3] [%],downregulation in expression level of α-SMA compared to TGF-β1 stimulation group [4] [%],effect on cytoplasm-to-nuclear translocation of Smad2/3 (Smad2/3 in MRC-5 cells),decrease in expression level of COL3A1 relative to TGF-β1 stimulation group [5] [%],decrease in expression level of COL1A1 relative to TGF-β1 stimulation group [6] [%],closure of wound area over 24 h period (MRC-5 fibroblasts) [%],downregulation in expression level of S100A4 compared to TGF-β1 stimulation group (S100A4 in MRC-5 cells) [%],CC50 at 48 h [7] [µM],CC50 at 48 h (in vitro) [µM]
"O=C1CC(n2ccc3cc(Cl)ccc32)CC2C3CCCN4CCCC(CN12)C34 (centres unmarked) [3f, 13-(5-chloro-1H-indol-1-yl)-matrine]",40.0,3.3 ± 0.3,8.0,46.7,45.8,significantly inhibit the cytoplasm-to-nuclear translocation of Smad2/3,31.1,46.2,37.7,17.7,26.7 ± 0.7,
"O=C1C=CC[C@@H]2[C@H]3CCCN4CCC[C@@H](CN12)[C@@H]34 [Sophocarpine, reference compound]",,1190 ± 135,2.7,,,,,,,,,3160 ± 355
